# How the values were obtained:
# [1] = tested on: U87 glioblastoma cells; assay: Acid-induced calcium flux in U87 cells; type: cell-based, human; conditions: medium shifted from pH 7.8 to 6.4
# From the text: GPR68 is known to signal through Gq which results in a calcium flux out of the Endoplasmic reticulum. U87 glioblastoma cells were stained, using a calcium-sensitive vital dye Fluo-8, and stimulated with acidification of the media to pH6.4. The cells respond to the acidification with a burst of calcium release, this is inhibited by OGM2.
# To determine if GBM cells respond to their own acidic extracellular milieu as a form of autocrine signaling, calcium release in response to acidification was measured. GPR68 is known to couple to the Gq subunit, which acts to release calcium from the ER in a PLC dependent pathway. The medium was shifted from pH 7.8 to 6.4, which triggered a rapid and robust calcium flux, as measured by the fluorescence intensity of calcium-sensitive dye Cal520-AM. This calcium flux was blocked by OGM2 and PLC inhibitor U73122. FIG. 50A, FIG. 50B, FIG. 50C and FIG. 50D.
# [2] = tested on: MeWo; assay: Scratch assay; type: cell-based, human; conditions: 20 hours, OGM2 5 uM
# Protocol: (§1) Since there are numerous parallels are found between neural crest cells and cancer during migration, we examined whether OGM could inhibit the migration of cells in human melanoma cell lines (Oppitz et al., 2007; Schriek et al., 2005, Sinnberg et al., 2018). […] A2058. MeWo and WM115 cells were grown to confluence and a stripe of cells were denuded with a p200 pipette tip “scratch” and rinsed with PBS. Cells were treated with OGM or DMSO and incubated in low serum media. Imaging was done at 30 minutes after “scratch” and then 20 hours afterwards. Areas were then measured and normalized to the initial area.
# [3] = tested on: WM115; assay: Scratch assay; type: cell-based, human; conditions: 20 hours, OGM2 5 uM
# Protocol: as §1
# [4] = tested on: A2058; assay: Scratch assay; type: cell-based, human; conditions: 20 hours, OGM2 5 uM
# [5] = tested on: U87 spheroids; assay: GBM spheroid assay; type: cell-based, human
# Protocol: One thousand cells per well were plated in an ultra-low attachment, round-bottomed, 96-well plate, and spheroids were allowed to form for 3 days. Wells were then exposed to concentrations of vehicle, OGM2 or TMZ or a combination for 3 days. Spheroids were imaged in brightfield at 10× using z-stacks that were collapsed into z-projections in the Gen5 software using the LionheartFx (BioTek™). Automated measurements of the spheroid area were obtained using Gen5 software.
# Tumor spheroid cultures are a more physiological model of tumor growth than typical 2D cell culture. Temozolomide sensitive U87 (FIG. 20A) and Temozolomide insensitive U138 (FIG. 20B) glioblastoma cell lines were plated in low attachment round bottom 96-well plates and allowed to form tumor spheroids for 3 days (T0). At T0, spheroids were imaged using Lionheart™ (HCS) High-Content Imaging Systems (Biotek™) and then were exposed to increasing doses of either Temozolomide or OGM2. After 5 days of treatment the spheroids were imaged again (T5). The size (area) of the spheroids after 5 days of treatment was quantified, and the average size of the spheroids at TO is depicted in red.
# A GPR68-positive allosteric modulator, Ogerin, was tested. U87glioblastoma cells were plated in low attachment round bottom 96-well plates and allowed to form tumor spheroids for 3 days (TO). These spheroids were treated with Vehicle (DMSO), 10 μM/20 μM Ogerin or 10 μM/20 μM Ogremorphin-2 (OGM2). The spheroids were placed in the Lionheart™ HCS equipped with environmental control (5% CO2 at 37° C.) and imaged every 12 hours.
# Spheroids were formed over 3 days using low attachment 96-well round bottom plates and then treated with DMSO or OGM2 in either pH 8 buffered media or pH 6.2 buffered media and grown for 3 days. The size (area) of spheroids was measured in relative area units. […] This increase in growth was abrogated by OGM2.
# [6] = tested on: endothelial cell (EC); assay: Acidification-induced endothelial cell dysfunction; type: cell-based; conditions: OGM2 3 uM; Ogerin 2 uM
# Protocol: FIG. 34A through FIG. 34C: GPR68 plays a central role in acidification-induced endothelial cell (EC) dysfunction in vitro, and OGM2 abrogates EC dysfunction. […] These effects were abolished by OGM2 (OGM) at 3 uM and augmented by GPR68 positive allosteric modulator Ogerin (Og) at 2 uM. *P<0.05; Mann-Whitney test, n=5. FIG. 34C: Medium acidification reduced transendothelial resistance (TER), indicative of disruption of EC barrier function.
# [7] = tested on: HEK293; type: cell-based; conditions: human
# From the text: FIG. 59A through FIG. 59D: OGM2 causes specific cell death in glioblastoma cells.
# Thus, in contrast to erastin, OGM2 induces ferroptosis selectively in cancer cells.
structure (smiles),measurement,setting,value
COc1ccc2c(c1)CC[C@@H]1[C@@H]2CC[C@]2(C)[C@@H](NCCCCCCN3C(=O)C=CC3=O)CC[C@@H]12 [Compound U73122],acid-induced calcium flux,[1],blocked
"CCN(c1nc(N)c(C(=O)NC(=N)N)nc1Cl)C(C)C [EIPA, reference compound]",migration,[2],not
same,migration,[3],inhibited migration
same,migration,[4],inhibited migration
"CCc1nn2c(C)cc(C)nc2c1Cc1ccc(-c2nnc(C3CCNCC3)o2)cc1 [NE52QQ, reference compound]",acid-induced calcium flux,[1],not significant
"Nc1nc(NCc2ccccc2)nc(-c2ccccc2CO)n1 [Ogerin, reference compound]",spheroid growth rate,[5],promoted U87 spheroids growth rate
same,"acidic media (pH 6.5)-induced TNFα, VCAM1 and ICAM1 expression",[6],augmented
"CCOc1ccccc1-n1c(C(C)N2CCN(C(=O)COc3ccc(Cl)cc3)CC2)nc2ccccc2c1=O (centres unmarked) [erastin, reference compound]",HEK293 cell viability / survival,[7],dramatically reduced HEK293 cell survival

# Reference: patent US20240327364A1, “THERAPEUTIC TARGETING OF GPR68 TO INDUCE FERROPTOSIS” (University Of Maryland, Baltimore, priority 2023, published 2024)
